From article PMC7287882, “Dual miRNases for Triple Incision of miRNA Target: Design Concept and Catalytic Performance” (Molecules, 2020)

Experiments:
[1] = type: in vitro ADME, bovine; settings: serum
Protocol: Stability of miRNA-21-DC and miRNA-155-DC and corresponding ONs was carried out in reaction mixtures (90 µL) containing DCs or ONs at a concentration of 0.1 mg/mL in Dulbecco’s Modified Eagle Medium (DMEM) with 10% FBS at 37 °C for 24 h. Aliquots (10 μL) were taken after 0, 0.5, 1, 2, 4, 8, and 24 h of incubation. The reaction was stopped by adding 10 μL of 8 M urea, and the reaction mixture was immediately frozen in liquid nitrogen. DCs and ONs cleavage products were analyzed in 12% PAAG/8M urea. To identified products, gels were stained with the Stains-All dye and photographed using a gel documentation system.
Figure S12. Stability of Dual conju gat es (DCs) and corresponding Du al oligonucleotides (ONs)
targeted to miR-155 and miR-21 in cell medium DMEM supplemented with 10% FBS . Im a g e s
of the 12% PAAG/8M urea, stained with Stains-Alland kinetics of degradation of DCs and ONs .
Conjugates and oligonucleotides at a concentration of 0. 1 mg/mL were incubated in DMEM
supplemented with 10% FBS at 37 °C for 24 h.
(1 picture or pasted object on this page, not shown here)

miR-18a = experiment: Ribonuclease activity assay, cleavage of miR-18a; type: biochemical; settings: miRNA 1 µM, DC 20 µM, 37 °C
Protocol: (§1) The ribonuclease activity of DCs was studied under two different buffer conditions: buffer (1) contained 50 mM Tris-HCl, pH 7.0, 200 mM KCl, 1 mM EDTA, which imitates intracellular conditions (e.g., pH and potassium ions concentration) and was used in a number of studies previously; and buffer (2) contained 20 mM Tris-HCl, pH 7.8, 40 mM KCl, 8 mM MgCl2, 1 mM DTT, 0.02 mg/mL BSA, which is recommended for in vitro reactions with RNase H (Figure 3 and Figure 4).
(§2) Figure 3 Kinetics of cleavage of 5′-[^32P]-labeled miR-17, miR-18a, miR-155, miR-21 and miR-21_1 by corresponding DCs in the buffer (1), containing 50 mM Tris-HCl, pH 7.0, 200 mM KCl and 1 mM EDTA. (a–e) Radioautographs of 18% denaturing PAAG showing the cleavage products of miR-17, miR-18a, miR-155, miR-21 and miR-21_1, respectively. miRNA (1 µM) and corresponding DC (20 µM) were incubated at 37 °C for 72 h. Lanes Im and T1—imidazole ladder and partial RNA digestion with RNase T1, respectively; control–miRNA was incubated in the absence of the conjugate. The incubation time (in hours) is show at the top. SS gap–single-stranded region of miRNA formed upon hybridization with DC; (f) Kinetics of miRNAs cleavage by DCs depending on the incubation time. Data are presented as mean ± s.e.
(§3) Figure 4 Kinetics of cleavage of 5′-[^32P]-labeled miR-17, miR-18a, miR-155, miR-21, and miR-21_1 by corresponding DCs in the buffer (2), containing 20 mM Tris-HCl, pH 7.8, 40 mM KCl, 8 mM MgCl2, 1 mM DTT, 0.02 mg/mL BSA. (a–e) Radioautographs of 18% denaturing PAAG showing the cleavage products of miR-17, miR-18a, miR-155, miR-21 and miR-21_1, respectively. miRNA (1 µM) and corresponding DC (20 µM) were incubated at 37 °C for 72 h. Lanes Im and T1–imidazole ladder and partial RNA digestion with RNase T1, respectively; control–miRNA was incubated in the absence of the conjugate. The incubation time (in hours) is shown at the top. SS gap–single-stranded region of miRNA formed upon hybridization with DC; (f) Kinetics of miRNAs cleavage by DCs. Data are presented as mean ± s.e.
(§4) The reaction mixture (10 µL) contained 800 cpm (Cherenkov’s counting) of [^32P]-miRNA, 1 μM unlabeled miRNA, one of the conjugates at a concentration 10 or 20 μM and one of the buffers: 50 mM Tris-HCl, pH 7.0, 200 mM KCl, 1 mM EDTA–buffer (1) or 20 mM Tris-HCl, pH 7.8, 40 mM KCl, 8 mM MgCl2, 1 mM DTT, 0.02 mg/mL BSA–buffer (2). The mixture was incubated at 37 °C for 0–72 h and quenched by precipitation of RNA with 2% LiClO4 in acetone (90 µL). RNA was collected by centrifugation and dissolved in loading buffer (8 M urea, 0.025% bromophenol blue, 0.025% xylene cyanol). RNA cleavage products were analyzed in 18% PAAG/8M urea using TBE (100 mM Tris-borate, pH 8.3, 2 mM EDTA) as running buffer. To identify cleavage sites, an imidazole and T1-ladders produced by partial RNA cleavage with 2 M imidazole buffer (pH 7.0) and with RNase T1 [68], respectively, were run in parallel. To obtain quantitative data, gels were dried and analyzed using Molecular Imager FX. The total extent of RNA cleavage and the extent of RNA cleavage at each individual site were determined by using Quantity One software v.4.1 (Bio-Rad, Hercules, CA, USA).

miR-21 = experiment: Ribonuclease activity assay, cleavage of miR-21; type: biochemical; settings: buffer (2) 20 mM Tris-HCl pH 7.8, 40 mM KCl, 8 mM MgCl2, 1 mM DTT, 0.02 mg/mL BSA, miRNA 1 µM, DC 20 µM, 37 °C
Protocol: as §1, §2, §3, §4

Substance	half-life time (τ1/2) in 10% FBS [1]	Total Cleavage (miR-18a; buffer (1) 50 mM Tris-HCl pH 7.0, 200 mM KCl, 1 mM EDTA, 2 h)	Total Cleavage (miR-18a; buffer (1) 50 mM Tris-HCl pH 7.0, 200 mM KCl, 1 mM EDTA, 6 h)	Total Cleavage (miR-18a; buffer (1) 50 mM Tris-HCl pH 7.0, 200 mM KCl, 1 mM EDTA, 24 h)	Total Cleavage (miR-18a; buffer (1) 50 mM Tris-HCl pH 7.0, 200 mM KCl, 1 mM EDTA, 48 h)	Total Cleavage (miR-18a; buffer (1) 50 mM Tris-HCl pH 7.0, 200 mM KCl, 1 mM EDTA, 72 h)	Total Cleavage (miR-18a; buffer (2) 20 mM Tris-HCl pH 7.8, 40 mM KCl, 8 mM MgCl2, 1 mM DTT, 0.02 mg/mL BSA, 2 h)	Total Cleavage (miR-18a; buffer (2) 20 mM Tris-HCl pH 7.8, 40 mM KCl, 8 mM MgCl2, 1 mM DTT, 0.02 mg/mL BSA, 6 h)	Total Cleavage (miR-18a; buffer (2) 20 mM Tris-HCl pH 7.8, 40 mM KCl, 8 mM MgCl2, 1 mM DTT, 0.02 mg/mL BSA, 24 h)	Total Cleavage (miR-18a; buffer (2) 20 mM Tris-HCl pH 7.8, 40 mM KCl, 8 mM MgCl2, 1 mM DTT, 0.02 mg/mL BSA, 48 h)	Total Cleavage (miR-18a; buffer (2) 20 mM Tris-HCl pH 7.8, 40 mM KCl, 8 mM MgCl2, 1 mM DTT, 0.02 mg/mL BSA, 72 h)	rise of Kobs in buffer (2) compared to Kobs in buffer (1) (miR-18a)	Total Cleavage (miR-21; 2 h)	Total Cleavage (miR-21; 6 h)	Total Cleavage (miR-21; 24 h)	Total Cleavage (miR-21; 48 h)	Total Cleavage (miR-21; 72 h)
ACCCCTAT–linker 1–[GRLRL]2–linker 2–TTAGCATTAA [miRNA-155-DC, Dual oligonucleotide-peptide conjugate targeted to miR-155: catalytic peptide [LRLRG]2 between two 2-aminoadenine-containing oligodeoxyribonucleotides]	9.01 ± 0.5 h																
TATCTGC–linker 1–[GRLRL]2–linker 2–ATGCACCTTA [miRNA-18a-DC, Dual oligonucleotide-peptide conjugate targeted to miR-18a: catalytic peptide [LRLRG]2 between two 2-aminoadenine-containing oligodeoxyribonucleotides]		0%	1%	3%	7%	8%	1,4%	5%	19%	23%	37%	7 fold					
TCAACATC–linker 1–[GRLRL]2–linker 2–GATAAGCTA [miRNA-21-DC, Dual oligonucleotide-peptide conjugate targeted to miR-21: catalytic peptide [LRLRG]2 between two 2-aminoadenine-containing oligodeoxyribonucleotides]	8 ± 0.1 h												4%	13%	30%	30%	34%
